Source: patent publication US20040176431A1, “Antiproliferative 2-(sulfo-phenyl)-aminothiazole derivatives and pharmaceutical compositions, and methods for their use” (Pfizer, Inc., priority 2003, published 2004)

What was measured:
HCT-116 cells = assay: Inhibition of cell growth (MTT tetrazolium salt assay); assay type: cell-based; details: Homo sapiens
Experimental: Inhibition of cell growth was measured using the tetrazolium salt assay, which is based on the ability of viable cells to reduce 3-(4,5-dimethylthiazol-2-yl)-2,5-[2H]-diphenyltetrazolium bromide (MTT) to formazan (Mosmann, J. Immunol. Meth., 65, 55-63 (1983)). The water-insoluble purple formazan product was then detected spectrophotometrically. HCT-116 cells were grown in 96-well plates. Cells were plated in the appropriate medium at a volume of 135 μl/well in either McCoy's 5A Medium. Plates were incubated for four hours before addition of inhibitor compounds. Different concentrations of inhibitor compounds were added in 0.5% (v/v) dimethylsulfoxide (15 μL/well), and cells were incubated at 37° C. (5% CO2) for four to six days (depending on cell type). At the end of the incubation, MTT was added to a final concentration of 0.2 mg/mL, and cells were incubated for 4 hours more at 37° C. After centrifugation of the plates and removal of medium, the absorbance of the formazan (solubilized in dimethylsulfoxide) was measured at 540 nm. […] All results were compared to control cells treated only with 0.5% (v/v) dimethylsulfoxide.

CDK4/cyclin D3 = target: T1, CDK4/cyclin D3 (Homo sapiens, UniProt P11802); assay: Inhibition of CDK4/Cyclin D retinoblastoma kinase activity; assay type: biochemical; details: for % Inhib CDK4/D @ 0.1 μM / inhibition at 0.1 µM: test compound at 0.1 μM; for % Inhib CDK4/D @ 1 μM / inhibition at 1 µM: test compound at 1 μM (head line shifted: 'mM' printed beside 'Structure'); for % Inhib CDK4/D @ 0.03 / inhibition at 0.03 µM: test compound at 0.03 (unit cell empty, head line shifted; μM); for inhibition at 0.1 µM: read-out: % Inhib CDK4/D @ 0.1 μM; for inhibition at 1 µM: read-out: % Inhib CDK4/D @ 1 μM; for inhibition at 0.03 µM: read-out: % Inhib CDK4/D @ 0.03; for Ki: apparent Ki, Rb fragment substrate;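 for % Inhib CDK4/D @ 1 μM: relative to DMSO control wells without compound minus no-enzyme background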
T1 construct: made in house; host or cells: insect cells (baculovirus co-infection)
T1 sequence (P11802 whole entry, the tested form may be a part): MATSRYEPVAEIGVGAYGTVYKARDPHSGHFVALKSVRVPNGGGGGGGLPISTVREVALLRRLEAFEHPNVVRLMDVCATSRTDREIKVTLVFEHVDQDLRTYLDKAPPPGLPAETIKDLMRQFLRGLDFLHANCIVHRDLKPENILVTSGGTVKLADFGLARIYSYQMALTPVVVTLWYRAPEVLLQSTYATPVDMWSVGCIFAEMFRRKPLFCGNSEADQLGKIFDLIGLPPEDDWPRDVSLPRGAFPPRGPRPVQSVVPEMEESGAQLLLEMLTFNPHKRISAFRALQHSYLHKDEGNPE
T1 sequence (P30281 1-264 partner limits assumed): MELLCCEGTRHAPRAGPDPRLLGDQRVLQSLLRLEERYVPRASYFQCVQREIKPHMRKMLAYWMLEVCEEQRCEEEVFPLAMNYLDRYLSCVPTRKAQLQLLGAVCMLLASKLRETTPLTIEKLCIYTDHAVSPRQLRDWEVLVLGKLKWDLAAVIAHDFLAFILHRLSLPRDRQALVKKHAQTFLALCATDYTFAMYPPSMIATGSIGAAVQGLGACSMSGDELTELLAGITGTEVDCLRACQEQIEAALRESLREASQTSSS
Summary of the method: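 Apparent Ki derived by fitting activity at varied inhibitor concentrations to competitive (or competitive tight-binding) inhibition equations, background without enzyme subtracted. Radiometric filter-binding read-out of Rb(386-928) phosphorylation by 5 nM CDK4/cyclin D3(1-264); 25 μM ATP, pH 7.4, 2% DMSO, 30° C., 20 min, extended to 60 min for tight binders.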

% Inhib CDK4/D @ 0.1 μM (CDK4/cyclin D3; 0.1 µM) [%] | % Inhib CDK4/D @ 1 μM (CDK4/cyclin D3) [%] | % Inhib CDK4/D @ 0.03 (CDK4/cyclin D3) [%] | Structure (SMILES) | other results
 |  |  | CNS(=O)(=O)c1ccc(Nc2nc(N)c(C(=O)c3c(F)cccc3F)s2)cc1 [C(108)*, reference compound] | IC50 (HCT-116 cells; read-out: HCT116 IC50): 400 nM; IC90 (HCT-116 cells; read-out: HCT116 IC90): 1400 nM
29 | 45.2 | 17 | Cc1noc(C)c1CS(=O)(=O)c1ccc(Nc2nc(N)c(C(=O)c3c(Cl)cccc3Cl)s2)cc1 [DD(202)] | 
37 | 33.7 | −5.5 | COC(=O)/C=C/CS(=O)(=O)c1ccc(Nc2nc(N)c(C(=O)c3c(Cl)cccc3Cl)s2)cc1 [DD(203)] | 
29 | 20.8 | −3.4 | COC(=O)/C=C/CS(=O)(=O)c1ccc(Nc2nc(N)c(C(=O)c3c(Cl)cccc3Cl)s2)cc1 [DD(204)] | 
43 | 56.4 | −4.1 | Nc1nc(Nc2ccc(S(=O)(=O)CCCO)cc2)sc1C(=O)c1c(Cl)cccc1Cl [DD(205)] | 
24 | 47.3 | −11 | C=CCCS(=O)(=O)c1ccc(Nc2nc(N)c(C(=O)c3c(Cl)cccc3Cl)s2)cc1 [DD(206)] | 
41 | 36.8 | −9.9 | Nc1nc(Nc2ccc(S(=O)(=O)CCN3CCCC3)cc2)sc1C(=O)c1c(Cl)cccc1Cl [DD(207)] | 
36 | 47.8 | 0.2 | Nc1nc(Nc2ccc(S(=O)(=O)Cc3ncon3)cc2)sc1C(=O)c1c(Cl)cccc1Cl [DD(208)] | 
8 | −21 | −10 | Nc1nc(Nc2ccc(S(=O)(=O)CC3CNC(=O)O3)cc2)sc1C(=O)c1c(Cl)cccc1Cl (stereo not shown) [DD(209)] | 
 |  |  | CN(C)CCCS(=O)(=O)c1ccc(N(C)c2nc(N)c(C(=O)c3c(Cl)cccc3Cl)s2)cc1 [DD(210)] | inhibition at 0.1 µM (CDK4/cyclin D3): 21%; inhibition at 1 µM (CDK4/cyclin D3): -37%; inhibition at 0.03 µM (CDK4/cyclin D3): -22%
 | −0.2 | −11 | Nc1nc(Nc2ccc(S(=O)(=O)CCN3CCCCC3)cc2)sc1C(=O)c1c(Cl)cccc1Cl [DD(211)] | % Inhib CDK4/D @ 0.1 μM (CDK4/cyclin D3): 21%
17 | −14 | −16 | Nc1nc(Nc2ccc(S(=O)(=O)CC3CO3)cc2)sc1C(=O)c1c(Cl)cccc1Cl (stereo not shown) [DD(212)] | 
14 | −11 | −22 | CC(C)CCS(=O)(=O)c1ccc(Nc2nc(N)c(C(=O)c3c(Cl)cccc3Cl)s2)cc1 [DD(213)] | 
29 | 60.6 | −10 | COCCS(=O)(=O)c1ccc(Nc2nc(N)c(C(=O)c3c(Cl)cccc3Cl)s2)cc1 [DD(214)] | 
25 | 4.9 | −15 | Nc1nc(Nc2ccc(S(=O)(=O)CC(=O)Nc3ccccc3)cc2)sc1C(=O)c1c(Cl)cccc1Cl [DD(215)] | 
20 | 47.1 | 12 | Nc1nc(Nc2ccc(S(=O)(=O)CC3CC3)cc2)sc1C(=O)c1c(Cl)cccc1Cl [DD(216)] | 
39 | −21 | −8 | COc1cccc(CS(=O)(=O)c2ccc(Nc3nc(N)c(C(=O)c4c(Cl)cccc4Cl)s3)cc2)c1 [DD(217)] | 
33 | 23.4 | −12 | Nc1nc(Nc2ccc(S(=O)(=O)CC3CCCO3)cc2)sc1C(=O)c1c(Cl)cccc1Cl (stereo not shown) [DD(218)] | 
22 | 19.5 | 3.3 | CN1CCCC1CCS(=O)(=O)c1ccc(Nc2nc(N)c(C(=O)c3c(Cl)cccc3Cl)s2)cc1 (stereo not shown) [DD(219)] | 
30 | 26.3 | −19 | CC1(CS(=O)(=O)c2ccc(Nc3nc(N)c(C(=O)c4c(Cl)cccc4Cl)s3)cc2)CO1 (stereo not shown) [DD(220)] | 
21 | 17.6 | −14 | NC(=O)CS(=O)(=O)c1ccc(Nc2nc(N)c(C(=O)c3c(Cl)cccc3Cl)s2)cc1 [DD(221)] | 

% Inhib CDK4/D @ 0.1 μM (CDK4/cyclin D3; 0.1 µM) [%] | % Inhib CDK4/D @ 1 μM (CDK4/cyclin D3) [%] | % Inhib CDK4/D @ 0.03 (CDK4/cyclin D3) [%] | Structure (SMILES) | other results
−11 | −11 | −9 | CCOC(=O)CCS(=O)(=O)c1ccc(Nc2nc(N)c(C(=O)c3c(Cl)cccc3Cl)s2)cc1 [DD(222)] | 
35 | 11.7 | −11 | CC(C)OC(=O)CS(=O)(=O)c1ccc(Nc2nc(N)c(C(=O)c3c(Cl)cccc3Cl)s2)cc1 [DD(223)] | 
12 | 9.8 | −2.6 | CC(C)=CCS(=O)(=O)c1ccc(Nc2nc(N)c(C(=O)c3c(Cl)cccc3Cl)s2)cc1 [DD(224)] | 
17 | 0.6 | −5 | CCCS(=O)(=O)c1ccc(Nc2nc(N)c(C(=O)c3c(Cl)cccc3Cl)s2)cc1 [DD(225)] | 
18 | −3.9 | −6.3 | COC(=O)CS(=O)(=O)c1ccc(Nc2nc(N)c(C(=O)c3c(Cl)cccc3Cl)s2)cc1 [DD(226)] | 
16 | 15.2 | −12 | CN1CCCC(CS(=O)(=O)c2ccc(Nc3nc(N)c(C(=O)c4c(Cl)cccc4Cl)s3)cc2)C1 (stereo not shown) [DD(227)] | 
29 | 43 | 1 | NC(=O)CCS(=O)(=O)c1ccc(Nc2nc(N)c(C(=O)c3c(Cl)cccc3Cl)s2)cc1 [DD(228)] | 
23 | 3.5 | −13 | Nc1nc(Nc2ccc(S(=O)(=O)CCO)cc2)sc1C(=O)c1c(Cl)cccc1Cl [DD(229)] | 
20 | −1.6 | −17 | CC(C)CCCS(=O)(=O)c1ccc(Nc2nc(N)c(C(=O)c3c(Cl)cccc3Cl)s2)cc1 [DD(230)] | 
 |  |  | CC(C)CCOC(=O)CS(=O)(=O)c1ccc(N(C)c2nc(N)c(C(=O)c3c(Cl)cccc3Cl)s2)cc1 [DD(231)] | inhibition at 0.1 µM (CDK4/cyclin D3): 27%; inhibition at 1 µM (CDK4/cyclin D3): 33.3%; inhibition at 0.03 µM (CDK4/cyclin D3): -1.8%
 |  |  | CN(C)CCS(=O)(=O)c1ccc(Nc2nc(N)c(C(=O)c3c(Cl)cccc3Cl)s2)cc1 [DD(232)] | inhibition at 0.1 µM (CDK4/cyclin D3): 26%; inhibition at 1 µM (CDK4/cyclin D3): 17.6%; inhibition at 0.03 µM (CDK4/cyclin D3): 3.7%
 |  |  | CCOCCS(=O)(=O)c1ccc(Nc2nc(N)c(C(=O)c3c(Cl)cccc3Cl)s2)cc1 [DD(233)] | inhibition at 0.1 µM (CDK4/cyclin D3): 11%; inhibition at 1 µM (CDK4/cyclin D3): -12%; inhibition at 0.03 µM (CDK4/cyclin D3): 8.4%
 |  |  | CN(c1ccc(S(=O)(=O)CC(O)CO)cc1)c1nc(N)c(C(=O)c2c(Cl)cccc2Cl)s1 (stereo not shown) [DD(234)] | inhibition at 0.1 µM (CDK4/cyclin D3): 35%; inhibition at 1 µM (CDK4/cyclin D3): 26.1%; inhibition at 0.03 µM (CDK4/cyclin D3): 9.6%
 |  |  | Nc1nc(Nc2ccc(S(=O)(=O)Cc3ccncc3)cc2)sc1C(=O)c1c(Cl)cccc1Cl [DD(235)] | inhibition at 0.1 µM (CDK4/cyclin D3): 27%; inhibition at 1 µM (CDK4/cyclin D3): 6.9%; inhibition at 0.03 µM (CDK4/cyclin D3): 7.7%
 |  |  | CCC(CC)CS(=O)(=O)c1ccc(Nc2nc(N)c(C(=O)c3c(Cl)cccc3Cl)s2)cc1 [DD(236)] | inhibition at 0.1 µM (CDK4/cyclin D3): 30%; inhibition at 1 µM (CDK4/cyclin D3): 1.7%; inhibition at 0.03 µM (CDK4/cyclin D3): -0.4%
22 | 7.3 | −1.7 | CC(=O)OCCS(=O)(=O)c1ccc(Nc2nc(N)c(C(=O)c3c(Cl)cccc3Cl)s2)cc1 [DD(237)] | 
 |  |  | CC(C)OC(=O)CCS(=O)(=O)c1ccc(N(C)c2nc(N)c(C(=O)c3c(Cl)cccc3Cl)s2)cc1 [DD(238)] | inhibition at 0.1 µM (CDK4/cyclin D3): 22%; inhibition at 1 µM (CDK4/cyclin D3): 21.5%; inhibition at 0.03 µM (CDK4/cyclin D3): -19%
27 | 8 | 12 | Nc1nc(Nc2ccc(S(=O)(=O)CCN3CCOCC3)cc2)sc1C(=O)c1c(Cl)cccc1Cl [DD(239)] | 
11 | 8.7 | 6.8 | CC(C)(CO)CS(=O)(=O)c1ccc(Nc2nc(N)c(C(=O)c3c(Cl)cccc3Cl)s2)cc1 [DD(240)] | 
 |  |  | CSc1cccc(Nc2nc(N)c(C(=O)c3c(Cl)cccc3Cl)s2)c1 [R(3), 4-Amino-5-(2,6-dichlorobenzoyl)-2-(3-methylthio-phenylamino)-thiazole] | Ki (CDK4/cyclin D3): 74 nM
 |  |  | Nc1nc(Nc2ccc(Sc3ccncc3)cc2)sc1C(=O)c1c(Cl)cccc1Cl [W(1), 4-Amino-5-(2,6-dichloro-benzoyl)-2-[4-(pyridin-4-ylthio)-phenylamino]-thiazole] | Ki (CDK4/cyclin D3): 89 nM
